Reference: a melting point compilation (Tetko et al.; mined from patent text by program, amines drawn as free bases though some values may be those of a salt)

SMILES | melting point
C#CC(C)(O)C1CCC2C3CCC4CC(F)CCC4(C)C3CCC21C (stereo unspecified) | 230 to 231 °C
CCn1c(=O)c(C)cc2cnc(Nc3ccccc3)nc21 | 178 to 180 °C
Cc1cccc(-c2n[nH]cc2-c2ccc(F)c(-c3ccc(NC(=O)NN4CCOCC4)cc3)c2)n1 | 131 to 133 °C
COC(=O)CC[C@H](NC(=O)c1cn(C(c2ccccc2)(c2ccccc2)c2ccccc2)c(C#Cc2cnc3nc(NC(=O)C(C)(C)C)nc(O)c3c2)n1)C(=O)OC | 93 to 95 °C
CC(C)n1nc(-c2sc(Nc3cccc4ccccc34)nc2-c2ccccc2)ccc1=O | 239 to 240 °C
Cc1c(O[Si](C(C)C)(C(C)C)C(C)C)cc2occ(N3CCC(O)(c4ccc(F)cc4)CC3)c(=O)c2c1Br | 193 to 195 °C
Cc1ccc(C(=C(C=O)c2nnnn2C)c2ccc(C)cc2F)c(F)c1 | 154 to 155 °C
O=[N+]([O-])c1ccc(C=Cc2ccncn2)cc1 | 213 to 215 °C
CN(C)C1=CC(=O)c2ccccc2OC1 | 136 °C
CC(C)CN(CCCc1ccc(F)cc1)[C@H]1CC[C@H](c2ccc3[nH]c(=O)oc3c2)CC1 | 199 to 201 °C
CC1(C)CC(NC(=O)c2ccc(Cl)c([N+](=O)[O-])c2)CC(C)(C)N1 | 166 to 168 °C
CC(=O)Nc1c(OC(C)=O)cc2c(c1[N+](=O)[O-])CCC2 | 168 to 170 °C
CCOC(=O)C=Cc1cnc(Nc2ccccc2)nc1N | 190 to 192 °C
COC(=O)C1C=CCN2C(=O)C(CCOS(C)(=O)=O)(Cc3ccccc3)C(=O)N12 (stereo unspecified) | 161 to 163 °C
Cc1oc(-c2cccc(Br)c2)nc1CCOc1ccc(OC(C)(C)C(=O)O)cc1 | 158 to 159 °C
CC(CO)(CO)NS(=O)(=O)c1cccc(C#Cc2cnn3c(C(F)F)cc(-c4ccc(C(F)(F)F)cc4)nc23)c1 | 172 to 174 °C
CC(C)(C)NC(=O)C(=O)c1ccccc1 | 76 to 77 °C
CC1(c2cc(Cl)nnc2Cl)CC1(Cl)Cl (stereo unspecified) | 78 to 79 °C
CCNc1nnc(-c2ccc3ncn(-c4ccc(SC)cc4)c3c2)o1 | 226 to 227 °C
CN1CC(Oc2ccc(Nc3cc(Br)cn(C)c3=O)nc2)C1 | 100 to 101 °C
COc1ccccc1-n1ccc(=N)cc1 | 121 to 124 °C
COc1ccc2c(c1)C(c1ccc(O)cc1)c1c-2ccc2cc(OC)ccc12 (stereo unspecified) | 196 to 199 °C
C#Cc1cccc(N2C(=O)C=CC2=O)c1 | 129 to 131 °C
CCCCNc1cc(C(=O)O)cc(S(N)(=O)=O)c1Nc1ccc(N)cc1 | 210 °C
BrCc1c(Br)csc1Br | 89 to 90 °C
O=C(O)CCCCC=C(c1ccccc1)c1ccccc1 | 71.5 to 72.5 °C

SMILES | melting point
COc1ccc2c(n1)C1(CO2)C(=O)N(Cc2ncccc2C(F)(F)F)c2ccccc21 (stereo unspecified) | 195 to 198 °C
COCc1ccc(C(=O)NC(C#N)n2cccn2)cc1 (stereo unspecified) | 155 to 157 °C
Cc1cccc(-c2n[nH]cc2-c2ccc(F)c(-c3cnn(CCO)c3)c2)n1 | 132 to 135 °C
Cc1c(Nc2c(C#N)cnc3sc(C(=O)O)cc23)ccc2[nH]ccc12 | 287 °C
FC(F)(F)c1cccc(C2=NN3CCN=C3C=C2)c1 | 137 to 139 °C
COc1cccc2cc(CNCCN3C(=O)CC4(CCCC4)CC3=O)oc12 | 156 to 158 °C
CCCC=C(OC(C)=O)C(=Cc1ccc(Cl)cc1)n1cncn1 | 112 to 113 °C
CCC(O)(CC)c1cc(C)c(-c2cccc(OCc3ccc(CO)c(CO)c3)c2)c(C)c1 | 133 °C
COc1ccc(S(=O)(=O)C(CC(=O)NO)Cc2ccccc2)cc1OC (stereo unspecified) | 77 to 79 °C
CCOC(=O)c1cnn(-c2ccc(C)cc2)n1 | 61 to 62 °C
CC(C)Cn1c(=O)n(C)c(=O)c2c(S(=O)(=O)N3CC[C@@H](O)C3)c(Cc3cccnc3)sc21 | 161 to 162 °C
CCCCN1CC(c2ccccc2)=C(O)C1=O | 137 to 139 °C
O=C1C(c2ccccc2)=C(c2ccccc2)C(=O)N1Cc1ccccc1F | 113 to 114 °C
O=C(Nc1c(Cl)cncc1Cl)c1ccc(OCC2CC2)c2oc3ccccc3c12 | 242 °C
CN1C(C)(C(=O)OC(C)(C)C)COS1(=O)=O (stereo unspecified) | 54 to 55 °C
NNC1(Cl)C=Cc2nc(Cl)cnc2C1 (stereo unspecified) | < 250 °C
Cn1c(=O)c2nc(-c3ccc(/C=C/C(=O)O)cc3)[nH]c2n(Cc2ccc(C#N)cc2)c1=O | > 350 °C
CC(=O)Nc1ccc(S(=O)(=O)N(CCCl)CCCl)cc1 | 113 to 114 °C
CC(C)(C)c1cc(CCc2nsc(=O)o2)cc(C(C)(C)C)c1O | 82 to 86 °C
O=C(c1ccc(Cl)cc1)c1nccs1 | 101 to 103 °C
NS(=O)(=O)OCCOc1ccccc1 | 89 to 91 °C
Cn1cc(C2=C(c3c4n(c5ccccc35)C[C@@H]3CN(C(=O)OC(C)(C)C)C[C@@H]3C4)C(=O)NC2=O)c2ccccc21 (relative stereo) | 173 to 175 °C
O=C1c2cccc(-n3c(=O)[nH]c4cnccc4c3=O)c2C2CC3(CCN12)OCCO3 (stereo unspecified) | 204 °C
COC(=O)N1CCCSC1=C[N+](=O)[O-] | 93 to 95 °C
CCCCCCCCCCc1ccc(C[N+](=O)[O-])cc1 | 50 °C
CCCCCCCCc1ccc(OCC(=O)Cn2c(C(=O)O)cc3ccccc32)cc1 | 173 °C

SMILES | melting point
O=C(CC(=O)c1snc(Cl)c1Cl)c1ccc(O)cc1 | 224 to 227 °C
Cc1c(C(=O)Nc2ccc(N3CCN(CCO)CC3)c(C#N)c2)cnn1-c1ccc(F)cc1F | 149 to 151 °C
COc1cccc(CS(=O)c2nc3cnccc3[nH]2)c1 (stereo unspecified) | 176 to 179 °C
Cc1ccc(-c2[nH]c(-c3ccccc3[N+](=O)[O-])nc2C(=O)Nc2nccs2)cc1 | 203 to 204 °C
Cc1nc(-c2ccccc2)nc(-c2cccc([N+](=O)[O-])c2)c1CC#N | 219 to 221 °C
Oc1cc(Br)ccc1Br | 71 to 74 °C
COc1ccc(C(=O)Nc2c(Cl)cc(C(=O)O)cc2Cl)c2cc(C(C)C)oc12 | 279 °C
CCCn1c(=O)c2[nH]c(C(C)(C)C)nc2n(CCN(C)C(C)=O)c1=O | 149 to 152 °C
CCCOc1nc2ccc(I)cc2c(=O)n1CCC | 49 to 53 °C
CCCc1cc(=O)oc2c(C(=O)CC)c(O)c3c(c12)OC(C)(C)C=C3 | 96 to 98 °C
C/C(=C\c1ccc(C(=O)O)cc1)c1ccc2c(c1)C(C)(C)C(O)CC2(C)C (stereo unspecified) | 250 to 252 °C
COc1cc(OC)nc(NC(=O)NS(=O)(=O)c2cccc3sc(C)nc23)n1 | 187 to 194 °C
CC(Oc1ccc(Cl)cc1)c1nnc(N2C(=O)N(C)CC2O)s1 (stereo unspecified) | 147 to 149 °C
Clc1ccc(/C=C/C2=CCN(Cc3ccccc3)CC2)cn1 | 126 to 128 °C
CN1C(=O)[C@H](NC(=O)COc2ccccc2)N=C(c2ccccc2)c2ccccc21 | 126 to 128 °C
Cc1ccc(Sc2ccnc3sc(C(N)=O)cc23)cc1 | 280 to 282 °C
Fc1ccc(NC(=S)c2ccccn2)cc1 | 82 to 85 °C
Cc1c(Cc2cccnc2)oc2ccc(C(=O)O)cc12 | 219 to 221 °C
CCCCc1nn(-c2cc([N+](=O)[O-])ccc2Cl)c(C(=O)OCC)c1Cc1ccc(-c2ccccc2S(=O)(=O)NC(=O)c2ccccc2Cl)cc1 | > 60 °C
N#Cc1ccccc1Sc1ccccc1[N+](=O)[O-] | 166 to 167 °C
Cc1cccnc1C(CO)COc1ccc([N+](=O)[O-])cc1 (stereo unspecified) | 135 to 136 °C
COC(=O)C=Cc1ccc(OC)c(OCc2nc(-c3ccccc3)oc2C)c1 | 135 to 136 °C
CCC(=O)NCCC1CCc2c(OC)ccc3ccc(OC)c1c23 (stereo unspecified) | 111 °C
CCCOc1ccc(OC)cc1C(N)=O | 83 to 87 °C
CC(C)C(C(=O)O)c1ccc2ccccc2c1 (stereo unspecified) | 129 to 130 °C
CCc1nc2c([nH]1)c(=S)n(CC)c(=O)n2CC(C)CC (stereo unspecified) | 115 to 117 °C

SMILES | melting point
CC(=O)CC(=O)C=Cc1c[nH]c2ccccc12 | 155 to 158 °C
Nc1nc(NCCOc2ccc(O)cc2)nc2nc(-c3ccco3)nn12 | 266 to 268 °C
CN(CCn1ncc(-c2ccccc2)cc1=O)CC(O)c1ccc(NS(C)(=O)=O)cc1 (stereo unspecified) | 108 °C
CC(=O)C(C)(C(C)=O)C(C)=O | 33 to 35 °C
CC(C)c1ccc(C=O)c(=O)c(O)c1 | 76 °C
Cc1c(C)c2c(c(C)c1NC(=O)c1ccc(Cl)cc1)C(c1ccc(C(C)C)cc1)C(C)(C)O2 (stereo unspecified) | 201 to 203 °C
CCN(CC)CC1(C(F)(F)F)c2cc(Cl)ccc2Nc2ncccc21 (stereo unspecified) | 115 to 117 °C
Cc1c(C)c2c(c(C)c1O)CCC(C)(C(=O)N1CC(Oc3ccc(NC(=O)OC(C)(C)C)cc3)C1)O2 (stereo unspecified) | 182 to 183 °C
CC(C)(C)NC(=O)Nc1nc2nc(N)ncc2cc1-c1c(Cl)ccc(Cl)c1Cl | 329 to 330 °C
O=S1N=C(NCCCOc2cccc(CN3CCCCC3)c2)C(NCc2cccnc2)=N1 (stereo unspecified) | 140 to 143 °C
NC(=O)N1CCc2cc(S(N)(=O)=O)sc2C1 | 205 to 208 °C
CNC(=S)N(CCN1CCC(Nc2nc3ccccc3n2Cc2ccc(F)cc2)CC1)c1nccs1 | 188 °C
NC(=O)c1ccnc(N2CCN(Cc3ccc(F)cc3)C2=O)c1 | 206 to 208 °C
CC(C)(C)CC(=O)c1c(CC(C)(C)C(=O)O)n(Cc2ccc(Cl)cc2)c2ccc(OCc3ccc4ccccc4n3)cc12 | 183 to 184 °C
CN1C[C@H](CN2CCN(C(c3ccccc3)c3ccccc3)CC2)C=C2c3cccc4[nH]cc(c34)C[C@H]21 | > 200 °C
O=C1CCCN1CC1CCN(c2ccnc(C(F)(F)F)n2)CC1 | 118 to 120 °C
COC(=O)c1ccc2c(c1)CCC(CCN1CCC(c3ccccc3)CC1)C2=O (stereo unspecified) | 110 to 112 °C
CC1CCOP(C)(=O)C1 (stereo unspecified) | 78 to 83 °C
CCCCOC1(N)C=CC(NC(=O)CBr)=CC1 (stereo unspecified) | 131 to 134 °C
CCOC(=O)c1cc2cc(OC(F)(F)F)cc(NS(=O)(=O)c3cccs3)c2[nH]1 | 192 to 193 °C
CCCOc1ccc(Br)c2c(=O)c3ccccc3sc12 | 112 to 114 °C
Cc1ccccc1C(=O)NC(=O)NC1CN2CCC1CC2 (stereo unspecified) | 216 to 217 °C
CC(C(N)=O)c1ccc2c(c1)C(=O)Cc1cc([N+](=O)[O-])ccc1S2 (stereo unspecified) | 207 to 209 °C
